Consider 27 molecules from PubChem BioAssay (NCI).

Among the test systems are HS 578T breast; NCI/ADR-RES ovarian; MDA-N; DMS 114 small cell lung; HOP-18 NSCLC; XF 498 CNS; DMS 273 small cell lung; LXFL 529 NSCLC.
Assay in all cases: DTP human tumour cell line panel, 48 h

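Growth conditions: 96-well plates. Treatment: test compound, 48 hours, 5 concentrations. Analysis: linear interpolation between bracketing concentrations; unreached endpoints set to highest concentration. Abbreviation: GI50, concentration required for 50% inhibition of growth. At the TGI there is no net growth.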

A word on the GI50: it is the concentration that inhibits growth by half. The TGI is the concentration giving total growth inhibition. A high value points to lower sensitivity of the cells. With `C=C1C(=O)O[C@H]2[C@H]1CC/C(Cn1cc(Cn3ccc4ccccc43)nn1)=C\CC[C@@]1(C)O[C@@H]21`, the GI50 was 2.9 µM in the assay on HS 578T breast and 5.07 µM with NCI/ADR-RES ovarian. Also, the figures for the TGI in the assay with HS 578T breast and in the assay on NCI/ADR-RES ovarian were 14.2 µM and 21.6 µM, respectively.

For `Cc1cc(C)c(O)c(Cc2cccc(Cc3cc(C)cc(C)c3O)c2O)c1`, the total growth inhibition concentration (TGI) in the assay on HS 578T breast, in the assay on MDA-N and with NCI/ADR-RES ovarian was greater than 100 µM each time.

`Cc1ccc([N+](=O)[O-])cc1NC(=O)C(=O)Cc1occc(=O)c1O`: the total growth inhibition concentration (TGI) with DMS 114 small cell lung, with HOP-18 NSCLC and with XF 498 CNS was greater than 100 µM in each case.

As for `Nc1ncnc2c1nc(-c1ccccc1)n2C1OC(CO)C(O)C1O` (configuration not stated), the TGI with HS 578T breast, in the assay with MDA-N and in the assay on NCI/ADR-RES ovarian was greater than 100 µM in each case.

As to `Cc1ccc(S(=O)(=O)/N=c2\ssc(Nc3ccccc3)c2Cl)cc1`, in the assay with NCI/ADR-RES ovarian, the GI50 was 10.1 µM and the TGI amounted to 27.6 µM.

As for `O=C(/C=C\c1cccc2ccccc12)c1cccs1`, the TGI with DMS 114 small cell lung was 14 µM; with DMS 273 small cell lung, 17.9 µM; in the assay with HOP-18 NSCLC, 21.8 µM; in the assay on LXFL 529 NSCLC, 22.9 µM.

Consider `Cc1n[nH]c(=S)n1/N=C/c1ccc(F)c(Oc2ccccc2)c1`, for which, in the assay with HS 578T breast, the GI50 is 33.2 µM and the TGI was greater than 100 µM. Moreover, in the assay on NCI/ADR-RES ovarian, the GI50 is 33.2 µM and the total growth inhibition concentration (TGI) was greater than 100 µM.

Consider `NC(=O)N/N=C(\C(=O)C(=O)Nc1ccc(Cl)c(C(F)(F)F)c1)c1nc2ccc(C(=O)c3ccccc3)cc2[nH]c1=O`, for which the TGI in the assay on DMS 114 small cell lung was greater than 100 µM; in the assay on DMS 273 small cell lung, greater than 100 µM; in the assay with HOP-18 NSCLC, greater than 100 µM; in the assay on XF 498 CNS, 64.1 µM.

For `O=C1C(=O)c2ccccc2-c2ccccc21`, in the assay with HS 578T breast, the GI50 was 3.14 µM and the total growth inhibition concentration (TGI) worked out at 9.86 µM. Further, in the assay on NCI/ADR-RES ovarian, the GI50 was 0.543 µM and the total growth inhibition concentration (TGI) turned out to be 2.9 µM.

Consider `O=[N+]([O-])c1cc(CCl)ccc1CCl`, for which the results for the TGI with HS 578T breast, with MDA-N and with NCI/ADR-RES ovarian were 11.4 µM, 4.23 µM and 8.84 µM, respectively.

Turning to `Cc1cc(O)c(C(c2cccnc2)c2c(O)cc(C)[nH]c2=O)c(=O)[nH]1`, the total growth inhibition concentration (TGI) with HS 578T breast, in the assay on MDA-N and with NCI/ADR-RES ovarian was greater than 100 µM throughout.

In the case of `CCCc1cc2cc(-n3nc(C)c4c3CC(C)(C)CC4=O)cc(NC3CCC(O)CC3)c2c(=O)[nH]1` (configuration not stated), the figures for the GI50 in the assay on HS 578T breast and with NCI/ADR-RES ovarian were 0.989 µM and 0.986 µM, respectively. For the same molecule, the concentration for total growth inhibition (TGI) in the assay on HS 578T breast and in the assay with NCI/ADR-RES ovarian was greater than 100 µM in each case.

Turning to `Cn1ncc2c(/N=C/c3cccs3)[nH]c(=S)nc21`, in the assay with HS 578T breast, the GI50 is 24.9 µM and the TGI came to 77 µM. Also, in the assay on NCI/ADR-RES ovarian, the GI50 was greater than 100 µM and the total growth inhibition concentration (TGI) is greater than 100 µM.

For `COc1cc2nc(Sc3c([N+](=O)[O-])ncn3C)[nH]c2cc1OC`, the TGI in the assay on DMS 114 small cell lung was 25.8 µM; in the assay on HOP-18 NSCLC, greater than 100 µM; in the assay on LXFL 529 NSCLC, 32 µM; in the assay with XF 498 CNS, 49.2 µM.

For `CN1CCC[C@@H]1CCO[C@](C)(c1ccccc1)c1ccc(Cl)cc1`, in the assay on HS 578T breast, the GI50 is 12.2 µM and the TGI worked out at 36 µM. In the assay with NCI/ADR-RES ovarian, the GI50 is 7.55 µM and the TGI is 21.7 µM.

As for `COc1ccc2c(c1)CCc1c(-c3noc4c3CCc3cc(OC)ccc3-4)noc1-2`, the TGI in the assay with HS 578T breast, in the assay on MDA-N and in the assay with NCI/ADR-RES ovarian was greater than 100 µM in each case.

Consider `COc1ccc(C(c2ccc(C(C)C)cc(=O)c2O)c2ccc3cccnc3c2O)cc1` (configuration not stated), for which the total growth inhibition concentration (TGI) in the assay with DMS 114 small cell lung came out at 0.645 µM; in the assay with DMS 273 small cell lung, 2.08 µM; in the assay on LXFL 529 NSCLC it was 15.7 µM; in the assay with XF 498 CNS it was 16.4 µM.

In the case of `COc1ccc(-c2cnc3ccnn3c2-c2cc(OC)c(OC)c(OC)c2)cc1`, in the assay on HS 578T breast, the GI50 was 2.37 µM and the TGI is greater than 100 µM. In addition, in the assay on NCI/ADR-RES ovarian, the GI50 is 2.89 µM and the total growth inhibition concentration (TGI) was greater than 100 µM.

Take `CCOC(=O)C(Cc1ccccc1)NC(=O)c1ccc(N=NN(C)C)cc1` (configuration not stated): the TGI in the assay with DMS 114 small cell lung, in the assay on DMS 273 small cell lung and in the assay with LXFL 529 NSCLC was greater than 100 µM in each case.

On to `C/C(CC(=O)NNc1ccc([N+](=O)[O-])cc1)=N\Nc1ccc([N+](=O)[O-])cc1`, for which, in the assay with HS 578T breast, the GI50 was 17.4 µM and the TGI was greater than 100 µM. For the same molecule, in the assay with NCI/ADR-RES ovarian, the GI50 was 15.1 µM and the TGI was greater than 100 µM.

Regarding `NC1=C(Cl)C(=O)c2ccc(S(N)(=O)=O)cc2C1=O`, the GI50 with HS 578T breast was 0.126 µM. In the assay on NCI/ADR-RES ovarian, the GI50 was 0.285 µM and the total growth inhibition concentration (TGI) amounted to 4.68 µM.

In the case of `C#CCN=C(N/N=C/c1ccc([N+](=O)[O-])o1)NS(=O)(=O)c1cc(C)c(Cl)cc1SCC(N)=O`, the GI50 in the assay with HS 578T breast was 19.8 µM; in the assay on NCI/ADR-RES ovarian, 94.3 µM. Besides, the concentration for total growth inhibition (TGI) in the assay with HS 578T breast is 49.5 µM; with NCI/ADR-RES ovarian, greater than 100 µM.

Regarding `COC(=O)N/N=C(/CCN1CCCC1)CC(c1ccccc1)c1c(O)c2ccccc2oc1=O` (configuration not stated), the concentration for total growth inhibition (TGI) in the assay on DMS 273 small cell lung, in the assay on HOP-18 NSCLC, in the assay with LXFL 529 NSCLC and in the assay with XF 498 CNS was greater than 100 µM each time.

On to `CCC(C)OC(=O)C1C2CCC(O2)C1C(=O)O` (configuration not stated), for which the TGI was greater than 56.4 µM in the assay on DMS 114 small cell lung, greater than 60.1 µM in the assay with DMS 273 small cell lung, greater than 100 µM with HOP-18 NSCLC and greater than 100 µM with LXFL 529 NSCLC.

Turning to `O=C(O)C(Cc1c[nH]c2ccccc12)N=Cc1nc(-c2ccccc2)oc1O` (configuration not stated), the TGI in the assay on DMS 114 small cell lung, in the assay on DMS 273 small cell lung, in the assay with LXFL 529 NSCLC and with XF 498 CNS was greater than 100 µM each time.

Consider `CN(C)CCCN(c1nc(C(Cl)(Cl)Cl)ns1)c1nc(C(Cl)(Cl)Cl)ns1`, for which, in the assay on HS 578T breast, the GI50 was 1.72 µM and the total growth inhibition concentration (TGI) worked out at 4.46 µM. In the assay with NCI/ADR-RES ovarian, the GI50 is 1.89 µM and the TGI was found to be 4.41 µM.

As for `COc1ccc(C(=O)N2CCc3c([nH]c4ccccc34)C2C(=O)O)o1` (configuration not stated), the concentration for total growth inhibition (TGI) in the assay with HS 578T breast, with MDA-N and in the assay with NCI/ADR-RES ovarian was greater than 10 µM throughout.
